Results reported in article PMC9945177, “Nature-Derived Epoxy Resin Monomers with Reduced Sensitizing Capacity—Isosorbide-Based Bis-Epoxides” (Chemical Research in Toxicology, 2023).

Key:
[1] = system: Female CBA/Ca mice; assay: murine local lymph node assay (LLNA); assay type: in vivo
Experimental: Female CBA/Ca mice, 7 to 9 weeks of age, were purchased from NOVA SCB Charles River, Germany. The mice were housed in HEPA-filtered air flow cages and kept on standard laboratory diet and water ad lib. The regional ethics committee, Jordbruksverket, approved the protocol and the procedure was performed in accordance with the guidelines.
A previously published protocol[24] of the LLNA[34] was used to assess the sensitization potential of the isosorbide bis-epoxides 1–3. The purity of the assessed isosorbide bis-epoxides was >99% (GC/MS or LC/MS) before testing of sensitization potential. The isosorbide bis-epoxides were tested in five different concentrations; 1: 3.9 mM (0.10% w/v), 39 mM (1.0% w/v), 190 mM (5.0% w/v), 390 mM (10% w/v), and 770 mM (20% w/v); 2: 21 mM (1.0% w/v), 54 mM (2.5% w/v), 110 mM (5.0% w/v), 210 mM (10% w/v), and 540 mM (25% w/v); and 3: 2.3 mM (0.10% w/v), 23 mM (1.0% w/v), 110 mM (5.0% w/v), 230 mM (10% w/v), and 460 mM (20% w/v). A detailed description is given in Supporting Information.
The three isosorbide bis-epoxides were evaluated for sensitization potential in vivo with the murine LLNA (Figure 2). The stimulation index (SI) is defined as the ratio between the dpm/lymph node for the test group and the control group. Test materials that at one or more concentrations cause an SI greater than 3 are considered positive in the LLNA. The estimated concentration required to induce an SI of 3 (EC3) is used to determine the sensitizing potency of the test compound. […] Isosorbide bis-epoxide 1 gave an EC3 value of 0.17 M (4.4%), 3 gave an EC3 value of 0.36 M (16%), and no EC3 value was obtained for 2 (for full results, see the Supporting Information, Table S1).
A previously published protocol1 of the LLNA2 was used to assess the sensitization potential of the isosorbide bis-epoxides 1-3. The purity of the assessed isosorbide bis-epoxides was >98% according to LC/MS analysis. The isosorbide bis-epoxides were tested in five different concentrations; 1: 3.87 mM […]
456 mM (20% w/v). Briefly, mice in groups of three received 25 µL of test compound dissolved in the vehicle acetone/olive oil (4:1 v/v), on the dorsum of the ears for three consecutive days (day 0, 1, and 2). A sixth group of four mice was treated with vehicle only (control group). On day 5, all mice were injected intravenously via the tail vein with 250 µL of phosphate buffered saline (PBS) (pH 7.4, 137 mM NaCl, 2.7 mM KCl, and 10 mM phosphate buffer) containing 20 µCi [methyl-3H]thymidine. Five hours later the mice were sacrificed, the draining lymph nodes were excised and pooled for each group, followed by preparation of single-cell suspensions of lymph nodes in PBS by using cell strainers (Falcon; BD Labware, Franklin Lakes, NJ, USA; pore size, 70 µm). Cell suspensions were washed twice with PBS, precipitated with trichloroacetic acid (TCA) (5%), and stored at 4 °C overnight. The samples were then centrifuged, resuspended in TCA (5%, 1 mL), and transferred to scintillation cocktail (10 mL) (EcoLume INC Radiochemicals, Solon, OH, USA). The incorporation of [methyl-3H]thymidine into DNA was measured by b-scintillation counting with a Beckman LS 6000TA instrument. Results are expressed as the mean dpm/lymph node for each experimental group and as stimulation index (SI). The SI is defined as the ratio between dpm/lymph node for the test group and the control group. Test materials that at one or more concentrations cause an SI greater than 3 are considered positive in the LLNA. EC3 values (the estimated concentration required to induce an SI of 3) were calculated by linear interpolation.
Results from the Local Lymph Node Assay
Table S1: Full results from the LLNA of bis-epoxides 1-3a
Test Test [3H]thymidine SI EC value

[2] = system: AcPHCKRM; assay: peptide depletion with AcPHCKRM; conditions: peptide 1 mM, test compound 10 mM, DMSO/phosphate buffer pH 7.4 (1:1), room temperature
Experimental: Liquid chromatography-mass spectroscopy (LC-MS) analyses of peptide depletion experiments were performed using electrospray ionization (ESI) on a Hewlett-Packard 1100 HPLC/MS (Agilent Technologies, Waldbronn, Germany). The system included a vacuum degasser, a binary pump, an autoinjector, a column thermostat, a diode array detector, and a single quadrupole mass spectrometer. The high-performance liquid chromatography (HPLC) system was equipped with a HyPURITY C18 column (150 × 3 mm i.d., particle size 3 μm, Thermo Hypersil-Keystone, Thermo Electron Corp., Bellafonte, PA, USA). The mobile phase consisted of 0.005% pentafluoropropanoic acid, 0.1% acetic acid, and 5% acetonitrile in water (solvent A) and 0.005% pentafluoropropanoic acid, 0.1% acetic acid, and 50% water in acetonitrile (solvent B). […] The gradient conditions used were as follows: 0-8% B (0-3 min), 8-10% B (3-15 min), 10-100% B (15-18 min), 100% B (18-30 min), 100-0% B (30-30.1 min), 0% B (30.1-40 min). The ESI interface was used in positive ionization mode with the following spray chamber settings: nebulizer pressure, 35 psi; capillary voltage, 3000 V; drying gas temperature, 350 °C; and drying gas flow rate, 12 L/min. The fragmentor voltage was set to 120 V. The mass spectrometer was used in scan mode detecting molecular ions with m/z values ranging from 50 to 1800. All solvents were degassed with argon prior to use.

[3] = thermogravimetric analysis (TGA) of polymers formed with TETA; assay type: physicochemical; conditions: polymer cured with TETA, TGA under nitrogen
Experimental: Detailed information on the polymerization procedure and the thermogravimetric analysis (TGA) is given in the Supporting Information.
Pilot experiments using TGA were conducted to investigate the properties of the polymers formed from isosorbide bis-epoxides 1–3 and the commonly used curing agent TETA (Table 2 and Figure 6). The onset of degradation is described by the initial decomposition temperature (IDT) and is an indication of the thermal stability of the cured epoxy resins. The maximum weight loss rate (Rmax) and the temperature (Tmax) at Rmax were taken from the peak values of the thermograms. The activation energies (Ea) for the decomposition of the polymers were calculated from the thermograms based on the Horowitz–Metzger equation.[43],[44]

[4] = estimated concentration required to induce an SI of 3, linear interpolation

EC3 value (%) ([1]; as printed in main text): 4.4%
EC3 value [1, 4]: 0.17 M
EC3 value (% w/v) [1, 4]: 4.40 % w/v
SI ([1]; test concentration 0.10% w/v): 0.82
[3H]thymidine incorporation (dpm/lymph node) ([1]; test concentration 0.10% w/v): 213 dpm/lymph node
SI ([1]; test concentration 1.0% w/v): 1.41
[3H]thymidine incorporation (dpm/lymph node) ([1]; test concentration 1.0% w/v): 367 dpm/lymph node
SI ([1]; test concentration 5.0% w/v): 3.28
[3H]thymidine incorporation (dpm/lymph node) ([1]; test concentration 5.0% w/v): 852 dpm/lymph node
SI ([1]; test concentration 10% w/v): 12.2
[3H]thymidine incorporation (dpm/lymph node) ([1]; test concentration 10% w/v): 3164 dpm/lymph node
SI ([1]; test concentration 20% w/v): 15.8
[3H]thymidine incorporation (dpm/lymph node) ([1]; test concentration 20% w/v): 4121 dpm/lymph node
Ea (activation energy for the decomposition of the cured epoxy resins) [3]: 66.9 kcal/mol
IDT (initial decomposition temperature) [3]: 362 °C
Rmax (maximum weight loss rate) [3]: –3.24 %/°C
Tmax (temperature at the maximum rate of weight loss) [3]: 380 °C
SMILES: C1OC1CO[C@H]1CO[C@H]2[C@@H]1OC[C@H]2OCC1CO1 (stereo partly drawn) [Compound 1, (3R,3aR,6S,6aR)-3,6-O-Bis(3,4-epoxypropyl)-1,4:3,6-dianhydro-D-glucitol]
sensitizing potency classification ([1]; classified by EC3): moderate (EC3 > 2%, moderate)
reactivity with the model peptide AcPHCKRM [2]: highest reactivity
